In general, IC50 refers to the point on the concentration scale where inhibition reaches its midpoint. Lower therefore signals greater potency in that assay. Usually inhibition stands for the share of the control response that was lost under treatment.

Read-outs that look alike come from different tables or passages of the source.

The source of these data is patent US5536737A, “Compound having prolyl endopeptidase inhibitory activity and pharmaceutical use thereof” (Japan Tobacco Inc., priority 1992, dated 1996).

Assay type in all cases: biochemical
The target of one assay is T1, prolyl endopeptidase (Rattus norvegicus, UniProt O70196).
T1 construct: prolyl endopeptidase extracted from rat brain; from tissue; host or cells: rat brain
T1 sequence (O70196 1-710): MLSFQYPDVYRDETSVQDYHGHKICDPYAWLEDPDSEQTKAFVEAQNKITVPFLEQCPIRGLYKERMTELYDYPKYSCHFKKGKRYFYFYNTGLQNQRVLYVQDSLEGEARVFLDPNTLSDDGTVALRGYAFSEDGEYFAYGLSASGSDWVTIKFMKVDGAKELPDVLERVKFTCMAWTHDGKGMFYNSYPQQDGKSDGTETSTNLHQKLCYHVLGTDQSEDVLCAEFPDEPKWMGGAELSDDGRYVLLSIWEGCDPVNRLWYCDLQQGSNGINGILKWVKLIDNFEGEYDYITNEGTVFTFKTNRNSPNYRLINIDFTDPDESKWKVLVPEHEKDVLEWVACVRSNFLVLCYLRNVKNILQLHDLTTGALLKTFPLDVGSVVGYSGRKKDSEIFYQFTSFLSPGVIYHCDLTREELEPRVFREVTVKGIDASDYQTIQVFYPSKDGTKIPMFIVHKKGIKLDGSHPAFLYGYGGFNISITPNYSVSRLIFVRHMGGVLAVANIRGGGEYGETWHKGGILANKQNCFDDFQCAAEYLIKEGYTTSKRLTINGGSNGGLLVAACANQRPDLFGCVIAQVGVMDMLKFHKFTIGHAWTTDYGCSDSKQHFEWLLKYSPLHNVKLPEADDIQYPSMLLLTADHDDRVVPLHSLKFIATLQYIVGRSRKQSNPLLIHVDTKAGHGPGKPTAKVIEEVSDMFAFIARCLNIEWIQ
Kind of assay: Prolyl endopeptidase-inhibitory activity. The note with it: for inhibition at 0.1 µM: read-out: inhibition of prolyl endopeptidase. As for the experimental part: Prolyl endopeptidase-inhibitory activity
A mixture of a 0.1M potassium-sodium phosphate buffer (pH 7.0, 2675 μl ), a solution of the compound of the present invention in a 0.1M potassium-sodium phosphate buffer (pH 7.0, 100 μl ) and a solution of prolyl endopeptidase extracted from rat brain in a 25 mM sodium phosphate buffer (100 μl ) [123 unit/1, pH 6.8, containing 1 mM dithiothreitol and 0.5 mM EDTA, prepared by the method described in J. Neurochem., 35, 527 (1980)] was preincubated at 30° C. for 30 minutes. Thereto was added a 0.2 mM solution of 7-(N-succinyl-glycyl-prolyl)-4methylcoumarinamide (Peptide Institute, INC.) in a 0.1M potassium-sodium phosphate buffer (pH 7.0, 125 μl), and the mixture was incubated at 30° C. for 1 hour. The reaction mixture was immersed in ice (0° C.) to terminate the reaction, and the fluorescence (a1) was determined ten minutes later (excitation at 370 nm and emission at 440 nm). Concurrently, an experiment wherein, in the above system, the prolyl endopeptidase solution was substituted for a 25 mM sodium phosphate buffer (pH 6.8, containing 1 mM dithiothreitol and 0.5 mM EDTA) and an experiment wherein the solution of the compound of the present invention was substituted for a 0.1M potassium-sodium phosphate buffer (pH 7.0) were conducted. Each fluorescence (a2 and a3) was determined [See Tanpakushitsu Kakusan Koso, 29, 127 (1984)]. The prolyl endopeptidase inhibition was calculated by the following formula, and IC50, a concentration necessary for 50% inhibition, was estimated by using a semilogarithmic graph paper. [formula]

The subject of another assay is leucine aminopeptidase. The experiment in a line: Leucine aminopeptidase-inhibitory activity. The note with it: concentration 0.1 μM; swine kidney, pH 8.0. Here is the method:
(§1) Inhibitory activity against various proteases
(§2) The compound of the present invention having predetermined concentrations was tested for the specificity of the inhibitory activity against various proteases according to a known test method.
(§3) The methods for the determination of the inhibitory activity against various proteases other than prolyl endopeptidase and the method for calculating the inhibition are as follows.
Determination of leucine aminopeptidase-inhibitory activity
In completely the same manner as above, respective fluorescence (d1, d2 and d3) was determined using a 50 mM Tris-HCl buffer (pH 8.0) as a buffer for determination, a 0.2 μM solution of leucine aminopeptidase (derived from swine kidney, Sigma) in the same buffer as an enzyme solution and a 200 μM solution of 7-leucyl-4-methyl-coumarinamide (Peptide Institute, Inc.) in the same buffer as a substrate solution.
(§4) Using the fluorescence x1, x2 and x3 wherein x is b, c, d, e or f, measured in the above-mentioned manner, the inhibition against various proteases was calculated by the following formula: [formula]

Another assay deals with T2, cathepsin B (Bos taurus, UniProt P07688).
T2 construct: purchased Sigma; host or cells: bovine spleen
The experiment in a line: Cathepsin B-inhibitory activity. Conditions: concentration 0.1 μM; bovine spleen, pH 6.0. As for the experimental part:
as §1, §2, §3
Determination of cathepsin B-inhibitory activity
In completely the same manner as above, respective fluorescence (f1, f2 and f3) was determined using a 100 mM sodium phosphate buffer (pH 6.0; containing 1.33 mM EDTA Na2) as a buffer for determination, a 0.02 μM solution of cathepsin B (derived from bovine spleen, Sigma) in the same buffer as an enzyme solution and a 200 μM solution of 7-(N-benzyloxy-carbonyl-phenylaranyl-arginyl)-4-methylcouma-rinamide (Peptid Institute, Inc.) in the same buffer as a substrate solution.
as §4

The next assay deals with T3, trypsin (Bos taurus, UniProt P00760).
T3 construct: purchased Sigma; host or cells: bovine pancreas
T3 sequence (P00760 24-246): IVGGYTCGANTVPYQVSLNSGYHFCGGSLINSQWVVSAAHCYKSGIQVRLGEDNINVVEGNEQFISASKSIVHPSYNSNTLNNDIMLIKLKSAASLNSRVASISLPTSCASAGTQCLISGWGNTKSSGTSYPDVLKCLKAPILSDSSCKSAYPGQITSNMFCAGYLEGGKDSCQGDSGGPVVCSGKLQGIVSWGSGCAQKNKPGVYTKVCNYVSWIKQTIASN
Kind of assay: Trypsin-inhibitory activity. Conditions: concentration 0.1 μM; bovine pancreas, pH 8.0. Here is the method:
as §1, §2, §3
Determination of trypsin-inhibitory activity
In the present invention, a 50 mM Tris-HCI buffer (pH 8.0) was used as a buffer for measurement.
To a mixture of the above-mentioned buffer (850 μl ), a solution of the compound of the present invention in the same buffer (50 μl ) and a 0.02 μM solution of trypsin (derived from bovine pancreas, Sigma) in the same buffer (50 μl ) was added a 200 μM solution of 7-(prolyl-phenylaranyl-arginyl)-4methylcoumarinamide (Peptide Institute, Inc.) in the same buffer (50 μl), and the mixture was incubated at 30° C. for 1 hour. The reaction mixture was immersed in ice (0° C.) to terminate the reaction, and the fluorescence (b1) was determined 1 hour later (excitation at 370 nm and emission at 440 nm). Concurrently, an experiment wherein, in the system above, the trypsin solution was substituted for a buffer and an experiment wherein the solution of the compound of the present invention was substituted for said buffer were conducted. Each fluorescence (b2 and b3) was determined.
as §4

In another assay the target is T4, chymotrypsin (Bos taurus, UniProt P00766).
T4 construct: purchased Sigma; host or cells: bovine pancreas
Kind of assay: Chymotrypsin-inhibitory activity. The note with it: concentration 0.1 μM; bovine pancreas, pH 8.0. Here is the method:
as §1, §2, §3
Determination of chymotrypsin-inhibitory activity
In completely the same manner as above, respective fluorescence (c1, c2 and c3) was determined using a 50 mM Tris-HCl buffer (pH 8.0) as a buffer for determination, a 0.2 μM solution of chymotrypsin (derived from bovine pancreas, Sigma) in the same buffer as an enzyme solution, and a 200 μM solution of 7-(N-succinyl-leucyl-leucyl-varyl-tyrosyl)-4-methylcoumarinamide (Peptide Institute, Inc.) in the same buffer as a substrate solution.
as §4

The target in another assay is T5, elastase (Sus scrofa, UniProt P00772).
T5 construct: purchased Sigma; host or cells: swine pancreas
T5 sequence (P00772 27-266): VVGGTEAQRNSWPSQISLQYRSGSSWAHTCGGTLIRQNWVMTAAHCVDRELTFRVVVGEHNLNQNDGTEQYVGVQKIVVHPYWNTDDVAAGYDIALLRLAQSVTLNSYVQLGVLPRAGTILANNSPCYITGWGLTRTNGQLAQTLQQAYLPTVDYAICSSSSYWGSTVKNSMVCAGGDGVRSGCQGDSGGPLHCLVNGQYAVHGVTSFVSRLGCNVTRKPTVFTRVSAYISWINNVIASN
The experiment in a line: Elastase-inhibitory activity. The note with it: concentration 0.1 μM; swine pancreas, pH 8.5. Here is the method:
as §1, §2, §3
Determination of elastase-inhibitory activity
In completely the same manner as above, respective fluorescence (e1, e2 and e3) was determined using a 1 mM Tris-HCl buffer (pH 8.5) as a buffer for determination, a 0.2 μM solution of elastase (derived from swine pancreas, Sigma) in the same buffer as an enzyme solution and a 200 μM solution of 7-(N-succinyl-aranyl-prolyl-aranyl)-4-methylcoumarinamide (Peptide Institute, Inc.) in the same buffer as a substrate solution.
as §4

The compound `CCCCCCCC(=O)N1CCC[C@H]1C(=O)N1CCC[C@H]1C(=O)COC(C)=O` [Compound 12, (S)-2-[[(S)-2-(Acetoxyacetyl)-1-pyrrolidinyl]carbonyl]-1-octanoylpyrrolidine] registered an IC50 at prolyl endopeptidase of 2 nM.

For the compound `O=C(OCC(=O)[C@@H]1CCCN1C(=O)[C@@H]1CCCN1C(=O)NCc1ccccc1)c1ccccc1` [Compound 3], in the assay with leucine aminopeptidase, the inhibition of leucine aminopeptidase came out at 0%. The inhibition at 0.1 µM on cathepsin B is 0%; against trypsin it was 0%; on prolyl endopeptidase, 98%; against chymotrypsin, 0%; against elastase, 0%. Also, the midpoint of inhibition against prolyl endopeptidase, the IC50, lay at 0.1 nM.

In the assay on leucine aminopeptidase, `O=C(CO)[C@@H]1CCCN1C(=O)[C@@H]1CCCN1C(=O)NCc1ccccc1` [Compound 2, (S)-2-[[(S)-2-(Hydroxyacetyl)-1-pyrrolidinyl]carbonyl]-N-(phenylmethyl)-1-pyrrolidinecarboxamide] gave an inhibition of leucine aminopeptidase of 0%. Besides, the inhibition at 0.1 µM came out at 0% at cathepsin B; 0% on trypsin; 98% on prolyl endopeptidase (concentration 0.1 μM); 0% on chymotrypsin; 0% against elastase.

In turn, `COc1ccc(CNC(=O)N2CCC[C@H]2C(=O)N2CCC[C@H]2C(=O)CO)cc1` [Compound 6, (S)-2-[[(S)-2-(Hydroxyacetyl)-1-pyrrolidinyl]carbonyl]-N-[(4methoxyphenyl)methyl]-1-pyrrolidinecarboxamide] yielded an inhibition of leucine aminopeptidase in the assay on leucine aminopeptidase of 0%. Further, the inhibition at 0.1 µM on cathepsin B was 0%; on trypsin, 0%; on prolyl endopeptidase, 100%; against chymotrypsin, 0%; on elastase it was 0%. This compound returned an IC50 on prolyl endopeptidase of 0.7 nM.

Regarding `COc1ccc(OCC(=O)N2CCC[C@H]2C(=O)N2CCC[C@H]2C(=O)COC(=O)C(C)(C)C)cc1` [Compound 10, (S)-1-[(4-Methoxyphenyl)oxyacetyl]-2-[[(S)-2-(pivaloyloxyacetyl)1-pyrrolidinyl]carbonyl]pyrrolidine], the half-maximal inhibitory concentration (IC50) against prolyl endopeptidase is 10 nM.

Consider `O=C(CO)[C@@H]1CCCN1C(=O)[C@@H]1CSCN1C(=O)OCc1ccccc1` [Compound 14, (R)-4-[[(S)-2-(Hydroxyacetyl)-1-pyrrolidinyl]carbonyl]-3(phenylmethyloxycarbonyl)thiazolidine], for which half-maximal inhibition against prolyl endopeptidase (IC50) was put at 1 nM.

At prolyl endopeptidase, `CCCCCCCC(=O)N1CCC[C@H]1C(=O)N1CCC[C@H]1C(=O)CO` [Compound 11, (S)-2-[[(S)-2-(Hydroxyacetyl)-1-pyrrolidinyl]carbonyl]-1-octanoylpyrrolidine] registered an IC50 of 0.4 nM.

At prolyl endopeptidase, `COc1ccc(OCC(=O)N2CCC[C@H]2C(=O)N2CCC[C@H]2C(=O)CO)cc1` [Compound 9, (S)-2-[[(S)-2-(Hydroxyacetyl)-1-pyrrolidinyl]carbonyl]-1-[(4methoxyphenyl)oxyacetyl]pyrrolidine] showed an IC50 of 2 nM.

Turning to `O=C(CO)[C@@H]1CCCN1C(=O)[C@@H]1CCCN1C(=O)NCCc1ccccc1` [Compound 5, (S)-2-[[(S)-2-(Hydroxyacetyl)-1-pyrrolidinyl]carbonyl]-N-(2-phenylethyl)-1-pyrrolidinecarboxamide], the inhibition of leucine aminopeptidase with leucine aminopeptidase was determined as 0%. Besides, the inhibition at 0.1 µM is 0% against cathepsin B; 0% on trypsin; 100% at prolyl endopeptidase; 0% on chymotrypsin; 0% at elastase. On prolyl endopeptidase, this compound came in with an IC50 of 0.3 nM.

With `Cc1ccc(CNC(=O)N2CCC[C@H]2C(=O)N2CCC[C@H]2C(=O)COC(=O)c2ccccc2)cc1` [Compound 8, (S)-2-[[(S)-2-(Benzoyloxyacetyl)-1-pyrrolidinyl]carbonyl]-N-[(4methylphenyl)methyl]-1-pyrrolidinecarboxamide], the inhibition of leucine aminopeptidase in the assay on leucine aminopeptidase is 0%. The inhibition at 0.1 µM against cathepsin B was found to be 0%; against trypsin, 0%; at prolyl endopeptidase, 100%; at chymotrypsin it was 0%; against elastase it was 0%. The same compound showed an IC50 on prolyl endopeptidase of 0.4 nM.

For the compound `CC(=O)OCC(=O)[C@@H]1CCCN1C(=O)[C@@H]1CCCN1C(=O)NCc1ccc(Cl)cc1` [Compound 15, (S)-2-[[(S)-2-(Acetoxyacetyl)-1-pyrrolidinyl]carbonyl]-N(4-chlorophenylmethyl)-1-pyrrolidinecarboxamide], 2 nM corresponded to half-maximal inhibition against prolyl endopeptidase (IC50).

On prolyl endopeptidase, `CCCCCCCC(=O)N1CCC[C@H]1C(=O)N1CCC[C@H]1C(=O)COC(=O)c1ccccc1` [Compound 13, (S)-2-[[(S)-2-(Benzoyloxyacetyl)-1-pyrrolidinyl]carbonyl]-1-octanoylpyrrolidine] showed an IC50 of 8 nM.
